Literature values, collected in patent US20160038452A1, “Methods for Administering a Depot of Disulfiram” (priority 2014, published 2016).

Columns and labels:
[1] = deep intramuscular injection, compared with patients on oral disulfiram

urinary levels of disulfiram metabolites [1]: insignificant
half-life of disulfiram in blood: 4 min
SMILES: CCN(CC)C(=S)SSC(=S)N(CC)CC [disulfiram]
